Experimental data taken from patent US20080139668A1, “PHARMACEUTICAL COMPOSITION FOR OBOVATOL FOR THE PREVENTION AND TREATMENT OF RESTENOSIS” (Korea Research Institute of Bioscience and Biotechnology, priority 2006, published 2008).

Key:
injured carotid artery [1] = tested on: injured carotid artery
Protocol: For the topical application of obovatol in vivo, pluronic gel was employed. F-127 pluronic gel (Sigma Chemical Company, Germany) was dissolved in cold, deionized water to give 40% gel one day before the experiment, and was allowed to stand at 4° C. for 12 hours to dissolve powdered F-127 pluronic gel completely. On the day of the experiment, obovatol was dissolved in a concentration of 10 μg/μL in 100% ethanol and 10 μL of the obovatol solution (10 μg/μL) was mixed with 90 μL of the 40% F-127 pluronic gel to afford 100 μL of obovatol-pluronic gel, comprising 100 μg of obovatol. A control was prepared in the same manner except that no obovatol was contained therein.
After rats were anaesthetized by abdominal injection with ketamine (50 mg/kg) and xylazine (6.7 mg/kg) and incised to expose the common carotid artery, the external carotid artery and the internal carotid artery were exteriorized through a ventral right line neck incision. While blood flow was temporarily halted by occluding the artery with microvascular clamps (Acland, S&T, Switzerland) at the proximal region of the common carotid artery and the distal region of the internal carotid artery, arteriotomy was performed on the external carotid artery. A 2F Fogarty arterial embolectomy catheter (Baxter Healthcare Corporation, USA) was inserted into the lumen of the right common carotid artery through the incised region and the balloon was inflated to a size larger than the diameter of the common carotid artery so as to generate slight arterial wall resistance. The catheter was advanced a predetermined distance and then withdrawn. This procedure was repeated a total of three times to induce endothelial denudation, after which the catheter (the balloon?) was removed from the arterial lumen. Then, the microvascular clamps were removed to allow blood to flow through the artery. Secretions and blood were completely removed from the exterior of the carotid artery before the obovatol-pluronic gel or the obovatol-lacking pluronic gel were topically applied in an amount of 100 μL to upper loci of the carotid artery, followed by ligation of the artery with a suture. Two weeks after the arteriotomy, a carotid artery angiography was conducted and a carotid artery sample was taken and analyzed histopathologically.

injured carotid artery [2] = assay: Carotid artery angiography in the rat carotid artery balloon injury model; type: in vivo; details: 100 μg obovatol in 100 μL pluronic gel, topical to injured carotid artery; 14 days after arteriotomy; mean±S.E.; control 0.63±0.12; p<0.01
Protocol: A 4F vascular cannula (Cook, USA) was inserted into the ventral aorta and the catheter was advanced toward the head to a locus as close as possible to a branch between the common carotid arteryand the transverse aorta. After the injection of a contrast media (Visipaque™, Amersham Health, Cork, Ireland), mean luminal diameters (MLD) were measured using computerized coronary angiography (DCI Videodensitometry, Phillips, Netherlands)(See FIG. 1˜FIG. 8).
They were measured for the inner diameter of the carotid artery using a 5F coronary catheter, and the mean value thereof was used as a control.

[3] = tested on: arterial smooth muscle cells; assay: Inhibition of PDGF-induced arterial smooth muscle cell proliferation (cell count); type: cell-based, rat; details: obovatol 1, 3, 5 μM; 50 ng/ml PDGF-BB; 24, 48, 72 hours; FIG. 9
Protocol: Obovatol was examined for inhibitory activity against the proliferation of arterial smooth muscle cells in rats. Arterial smooth muscle cells were plated at a density of 3.0×10^4 cells/well onto 12-well plates containing a DMEM medium supplemented with 0.5% (V/V) fetal bovine serum, and incubated for 24 hours After the addition of obovatol (1, 3, and 5 μM) to the plates, the cells were incubated for 24 hours. Treatment with 50 ng/ml of platelet-derived growth factor (PDGF-BB, Sigma Chem. Co., USA) was followed by incubation for 24, 48, and 72 hours. Thereafter, the cells were trypsinized and counted using a cell counter.

[4] = tested on: arterial smooth muscle cells; assay: Cell cycle of arterial smooth muscle cells; type: cell-based
ICR mice = assay: Acute toxicity assay in mice; type: in vivo, mouse; details: abdominal injection 1000, 100, 10 mg/kg
Protocol: (§1) ICR mice (weighing 25±5 g) and SPF Sprague-Dawley rats (weighing 235±10 g) were separately divided into four groups of three and abdominally injected with the obovatol prepared in Example 2 at doses of 1000 mg/kg, 100 mg/kg, and 10 mg/kg and monitored for toxicity over 24 hours.

[5] = tested on: arterial smooth muscle cells; assay: Inhibition of DNA synthesis ([3H] thymidine) in PDGF-treated arterial smooth muscle cells; type: cell-based, rat; details: obovatol 1, 3, 5 μM, FIG. 10
Protocol: Arterial smooth muscle cells were cultured in the same manner as in Example 4, with the exception that the cells were cultured for 20 hours after treatment with platelet-derived growth factor, and then cultured for 4 hours in the presence of 1 μl of [3H] thymidine. The cultured cells were washed with PBS and incubated with 500 μl of TCA (trichloroacetic acid) for 30 min. After the removal of TCA, the cells were washed with a mixture of 1:1 ethanol:ether (v/v) and disrupted with 500 μl of NaOH. The cell lysate was mixed with 5 ml of a scintillation cocktail and measured for radioactivity to analyze relative amounts of newly synthesized DNA. FIG. 10 is a graph in which amounts of newly synthesized DNA in PDGF-treated arterial smooth muscle cells are plotted against concentrations of obovatol.

SPF Sprague-Dawley rats = assay: Acute toxicity assay in rats; type: in vivo, rat; details: abdominal injection 1000, 100, 10 mg/kg
Protocol: as §1

[6] = 100 μg obovatol in pluronic gel, topical, two weeks after injury, control 0.18 ± 0.06, P < 0.05

For obovatol, the “Medial Area (mm^2)” value (injured carotid artery [1]; 100 μg obovatol in pluronic gel, topical, two weeks after injury, control 0.12 ± 0.02, P > 0.05) was 0.11 ± 0.10 mm^2, the “Intimal Area (mm^2)” value (injured carotid artery [1]; [6]) was 0.13 ± 0.03 mm^2 and the “Intimal Thickness (mm)” value (injured carotid artery [1]; [6]) was 0.23 ± 0.02 mm. For the same substance, the “Intimal-Medial Area Ratio” value (injured carotid artery [1]; 100 μg obovatol in pluronic gel, topical, two weeks after injury, control 1.54 ± 0.48, P < 0.05) was 1.12 ± 0.23, the “Stenosis (%)” value (injured carotid artery [1]; 100 μg obovatol in pluronic gel, topical, two weeks after injury, control 50.10 ± 13.25, P < 0.01) was 34.94 ± 7.23% and the “cytotoxicity inferred from similar medial thickness to control” value (injured carotid artery [1]; rat, in vivo) was “no cytotoxicity”. The “inner diameter of carotid artery (mean luminal diameter)” value (injured carotid artery [2]) was 0.78±0.06 mm, the “growth of arterial smooth muscle cells (cell count)” value [3] was “inhibitory of the growth of arterial smooth muscle cells” and the “proportion of cells in resting state (G0/G1) of the cell cycle” value [4] was “increased the proportion of cells in a resting state (G0/G1)”. The “abnormality (body weight, food intake, etc.)” value (ICR mice; 24 hours) was “no abnormality observed in any of the animals”, the death (ICR mice; monitored 24 hours) was “Death was observed in none of the four groups” and the “DNA synthesis ([3H] thymidine incorporation)” value [5] was “decreases with the increasing concentration of obovatol”. The “abnormality (body weight, food intake, etc.)” value (SPF Sprague-Dawley rats; 24 hours) was “no abnormality observed in any of the animals” and the death (SPF Sprague-Dawley rats; monitored 24 hours) was “Death was observed in none of the four groups”.
